Measurements: US20040204577A1, “Novel peptide-forming enzyme gene” (Ajinomoto Co., Inc., priority 2003, published 2004)
Where a SMILES comes first, the peptide text is derived from it. [ ]: non-standard residue; d: D form. The star is where a group is joined. Tle = CC(C)(C)[C@H](N)C(=O)O; NMeA = CN[C@@H](C)C(=O)O; Boc = CC(C)(C)OC(=O)*; Aib = CC(C)(N)C(=O)O; OtBu = CC(C)(C)O*; tBu = CC(C)(C)*

System: peptide-forming enzyme (Mono S fraction enzyme)
Test: Enzyme substrate specificity (1)-(10), (13), (14): peptide production
Type: biochemical, Empedobacter brevis
Design: key to Produced peptide (oligopeptide): +: those for which production was confirmed but which were unable to be quantified due to the absence of a standard; a trace amount; key to Formed peptide: +: those peptides for which production was confirmed but which were unable to be quantified due to the absence of a standard; a trace amount
Settings: L or D amino acid methyl ester hydrochloride 100 mM, L or D amino acid 150 mM, pH 9.0, 25° C., 3 hours
Protocol: Ester specificity was examined in the case of using L-amino acid ester for the carboxy component. 2 μl of the same enzyme fraction as used in Example 5 was added to 100 μl of 100 mM borate buffer (pH 9.0) containing the carboxy components indicated in Table 4 at 100 mM, 200 mM L-glutamine and 10 mM EDTA, and allowed to react at 25° C. for 2 hours. HCl represents hydrochloride in Table 4.
Peptide production was examined in the case of using L-alanine methyl ester for the carboxy component and using various L-amino acids for the amine component.
Peptide production was examined in the case of using various types of L-amino acid methyl esters for the carboxy component and using L-glutamine for the amine component. 2 μl of the same enzyme fraction as used in Example 5 was added to 100 μl of 100 mM borate buffer (pH 9.0) containing the L-amino acid methyl ester hydrochloride salts (AA-OMe.HCl) shown in Table 6 at 100 mM, 150 mM L-glutamine and 10 mM EDTA, and allowed to react at 25° C. for 3 hours. […] Furthermore, Tween-80 was added to the reaction system to a final concentration of 0.1% in the case of using L-Trp-OMe and L-Tyr-OMe.
Peptide production was examined in the case of using various L-amino acid methyl esters for the carboxy component and various L-amino acids for the amine component. 2 μl of the same enzyme fraction as used in Example 5 was added to 100 μl of 100 mM borate buffer (pH 9.0) containing the L-amino acid methyl ester hydrochloride salts (AA-OMe.HCl) shown in Table 7 at 100 mM, the L-amino acids shown in Table 7 at 150 mM and 10 mM EDTA, and allowed to react at 25° C. for 3 hours. The “tr” indicates a trace amount. Furthermore, Tween-80 was added to the reaction system to a final concentration of 0.1% in the case of using L-Trp-OMe.
Peptide production was examined in the case of using the L or D forms of various amino acid methyl esters for the carboxy component, and the L or D forms of various amino acids for the amine component. 2 μl of the same enzyme fraction as used in Example 5 was added to 100 μl of 100 mM borate buffer (pH 9.0) containing the various amino acid methyl ester hydrochloride salts (AA-OMe HCl) shown in Table 8 at 100 mM, the various amino acids shown in Table 8 at 150 mM and 10 mM EDTA, and allowed to react at 25° C. for 3 hours. The “tr” indicates a trace amount.
Peptide production was examined using various L-amino acid amides for the carboxy component, and various L-amino acids for the amine component. 2 μl of the same enzyme fraction as that used in Example 5 was added to 100 μl of 100 mM borate buffer (pH 9.0) containing the L-amino acid amide hydrochloride salt (M-NH2.HCl) shown in Table 9 at 100 mM, the L-amino acids shown in Table 9 at 150 mM and 10 mM EDTA, and allowed to react at 25° C. for 3 hours.
Peptide production was examined in the case of using various L-alanine methyl esters for the carboxy component and C-protected L-amino acids for the amine component. 2 μl of the same enzyme fraction as used in Example 5 was added to 100 μl of 100 mM borate buffer (pH 9.0) containing the L-alanine methyl ester hydrochloride hydrochloride salt (Ala-OMe.HCl) shown in Table 10 at 100 mM, the L-amino acid amide hydrochloride salts shown in Table 10 at 150 mM and 10 mM EDTA, and allowed to react at 25° C. for 3 hours.
Peptide production was examined in the case of using various amino acid methyl esters for the carboxy component and methylamine for the amine component. 2 μl of the same enzyme fraction as used in Example 5 was added to 100 μl of 100 mM borate buffer (pH 9.0) containing the amino acid methyl ester hydrochloride salt (M-OMe.HCl) shown in Table 11 at 100 mM, the methylamine shown in Table 11 at 150 mM and 10 mM EDTA, and allowed to react at 25° C. for 3 hours.
Peptide production was examined in the case of using […] for the carboxy component or β-amino acid for the amine component.

Row | Compound | Formed peptide
1 | C[C@@H](O)[C@H](N)C(=O)N[C@H](CO)C(=O)O [L-Thr-D-Ser] (H-Thr-[dS]-OH) | 6.9 mM
2 | C[C@H](N)C(=O)N[C@H](CCC(N)=O)C(=O)O [L-Ala-D-Gln] (H-Ala-[dQ]-OH) | 0.3 mM
3 | CSCC[C@H](N)C(=O)N[C@H](CO)C(=O)O [L-Met-D-Ser] (H-Met-[dS]-OH) | 1.9 mM
4 | C[C@@H](N)C(=O)N[C@@H](CCC(N)=O)C(=O)O [D-Ala-L-Gln] (H-[dA]-Gln-OH) | 69.3 mM
5 | C[C@H](O)[C@@H](N)C(=O)N[C@H](CO)C(=O)O [D-Thr-D-Ser] (H-[dT]-[dS]-OH) | 1.1 mM
6 | N[C@H](CO)C(=O)N[C@H](CO)C(=O)O [D-Ser-D-Ser] (H-[dS]-[dS]-OH) | 2.5 mM
7 | CC(C)[C@@H](N)C(=O)N[C@@H](CO)C(=O)O [D-Val-L-Ser] (H-[dV]-Ser-OH) | 0.6 mM
8 | CSCC[C@@H](N)C(=O)N[C@@H](CO)C(=O)O [D-Met-L-Ser] (H-[dM]-Ser-OH) | 5.1 mM
9 | N[C@@H](CO)C(=O)N[C@H](CO)C(=O)O [L-Ser-D-Ser] (H-Ser-[dS]-OH) | 16.2 mM
10 | CSCC[C@@H](N)C(=O)N[C@H](CO)C(=O)O [D-Met-D-Ser] (H-[dM]-[dS]-OH) | 2.7 mM
11 | C[C@@H](N)C(=O)N[C@H](CCC(N)=O)C(=O)O [D-Ala-D-Gln] (H-[dA]-[dQ]-OH) | tr
12 | C[C@H](O)[C@@H](N)C(=O)N[C@@H](CO)C(=O)O [D-Thr-L-Ser] (H-[dT]-Ser-OH) | 1.0 mM

Same assay, conditions: L-amino acid amide hydrochloride as carboxy component 100 mM, L-amino acid 150 mM, pH 9.0, 25° C., 3 hours

Row | Compound | Formed peptide [mM]
13 | N[C@@H](Cc1ccccc1)C(=O)N[C@@H](CO)C(=O)O [L-Phe-L-Ser] (H-Phe-Ser-OH) | 0.6

Same assay, conditions: L-amino acid ester 100 mM, peptide (amine component) 150 mM, pH 9.0, 25° C., 3 hours

Row | Compound | Produced peptide [mM]
14 | Gly-Gly-L-Tyr-L-Ala | 44.2

Same assay, conditions: L-amino acid methyl ester hydrochloride 100 mM, 150 mM L-glutamine, pH 9.0, 25° C., 3 hours

Row | Compound | Formed peptide
15 | NC(=O)CC[C@H](NC(=O)[C@@H](N)CCC(=O)O)C(=O)O [α-L-Glu-L-Gln] (H-Glu-Gln-OH) | +
16 | NC(=O)CCC(NC(=O)C(N)Cc1c[nH]c2ccccc12)C(=O)O [L-Trp-L-Gln] (H-Trp-Gln-OH; configuration not given here) | +
17 | NC(=O)CC[C@H](NC(=O)[C@@H](N)Cc1cnc[nH]1)C(=O)O [L-His-L-Gln] (H-His-Gln-OH) | +
18 | NC(=O)CC[C@H](NC(=O)C[C@H](N)C(=O)O)C(=O)O [β-L-Asp-L-Gln] | tr
19 | NC(=O)CC[C@H](NC(=O)CC[C@H](N)C(=O)O)C(=O)O [γ-L-Glu-L-Gln] | +
20 | CC(C)C[C@H](N)C(=O)N[C@@H](CCC(N)=O)C(=O)O [L-Leu-L-Gln] (H-Leu-Gln-OH) | +
21 | NC(=O)CC[C@H](NC(=O)[C@@H](N)CC(N)=O)C(=O)O [L-Asn-L-Gln] (H-Asn-Gln-OH) | +
22 | NC(=O)CC[C@H](NC(=O)[C@@H](N)CS)C(=O)O [L-CySH-L-Gln] (H-Cys-Gln-OH) | +

Same assay, conditions: L-amino acid methyl ester hydrochloride 100 mM, L-amino acid 150 mM, pH 9.0, 25° C., 3 hours

Row | Compound | Formed peptide [mM]
23 | C[C@@H](O)[C@H](N)C(=O)N[C@@H](CO)C(=O)O [L-Thr-L-Ser] (H-Thr-Ser-OH) | 58.2
24 | CSCC[C@H](NC(=O)[C@@H](N)CCCCN)C(=O)O [L-Lys-L-Met] | 6.8
25 | CSCC[C@H](NC(=O)[C@@H](N)Cc1cnc[nH]1)C(=O)O [L-His-L-Met] (H-His-Met-OH) | 6.5
26 | CSCC[C@H](NC(=O)[C@@H](N)Cc1c[nH]c2ccccc12)C(=O)O [L-Trp-L-Met] (H-Trp-Met-OH) | 4.1
27 | NC(=O)C[C@H](N)C(=O)N[C@@H](CCC(=O)O)C(=O)O [L-Asn-L-] (H-Asn-Glu-OH) | 10.2
28 | CSCC[C@H](NC(=O)[C@@H](N)CC(C)C)C(=O)O [L-Leu-L-] (H-Leu-Met-OH) | 12.2

Same assay, conditions: amount of enzyme 0.1 unit, pH 9.0, 25° C., 3 hours

Row | Compound | Produced peptide (oligopeptide)
29 | L-Ala-Gly-L-Phe | +

Same assay, conditions: amount of enzyme 0.2 unit, pH 9.0, 25° C., 3 hours

Row | Compound | Produced peptide (oligopeptide)
30 | L-Ala-L-Phe-L-Met | +

Same assay, conditions: amount of enzyme 1.0 unit, pH 9.0, 25° C., 3 hours

Row | Compound | Produced peptide (oligopeptide) [mM]
31 | Gly-Phe-Met | 13.3

Same assay, conditions: carboxy component 40 mM, amine component 40 mM, 0.1 unit enzyme, 25° C., reaction time 3 hr

Row | Compound | Produced peptide [mM]
32 | C[C@H](N)C(=O)N[C@@H](Cc1ccc(Cl)cc1)C(=O)O [H-Ala-Cl-F-Phe-OH] | 20.8
33 | C[C@H](N)C(=O)N[C@@H](Cc1ccc([N+](=O)[O-])cc1)C(=O)O [H-Ala-p-NO2-Phe-OH] | 27.5

Same assay, conditions: carboxy component 100 mM, 200 mM L-glutamine, pH 9.0, 25° C., 2 hours

Row | Compound | L-Ala-L-Gln formed [mM]
34 | CC(C)OC(=O)[C@H](C)N.Cl [L-Alanine isopropyl ester.HCl] | 78.9
35 | C[C@H](N)C(=O)OC(C)(C)C.Cl [L-Alanine-t-butyl ester.HCl] | 7.5
36 | COC(=O)[C@H](C)N.Cl [L-Alanine methyl ester.HCl, L-alanine methyl ester hydrochloride] | 84.3
37 | CCOC(=O)[C@H](C)N.Cl [L-Alanine ethyl ester.HCl] | 91.5

Same assay, conditions: carboxy component 100 mM, amine component 150 mM, 0.1 unit enzyme, 25° C., reaction time 2 hr

Row | Compound | Produced peptide [mM]
38 | C[C@H](N)C(=O)N[C@@H](COC(C)(C)C)C(=O)O [H-Ala-Ser(tBu)-OH] (H-Ala-Ser(tBu)-OH) | 48.8
39 | C[C@H](N)C(=O)N[C@@H](CCCCNC(=O)OC(C)(C)C)C(=O)O [H-Ala-Lys(Boc)-OH] (H-Ala-Lys(Boc)-OH) | 51.0
40 | C[C@H](N)C(=O)N[C@@H](CC(=O)OC(C)(C)C)C(=O)O [H-Ala-Asp(OtBu)-OH] (H-Ala-Asp(OtBu)-OH) | 62.6

Same assay, conditions: carboxy component 100 mM, amine component 150 mM, 0.1 unit enzyme, 25° C., reaction time 3 hr

Row | Compound | Produced peptide [mM]
41 | CC(C)(N)C(=O)N[C@@H](Cc1ccccc1)C(=O)O [H-Aib-Phe-OH] (H-[Aib]-Phe-OH) | 17.2
42 | CN[C@@H](C)C(=O)N[C@@H](CCC(N)=O)C(=O)O [H-N-Me-Ala-H-Gln-OH] (H-[NMeA]-Gln-OH) | 0.5
43 | C[C@H](N)C(=O)N[C@H](C(=O)O)C(C)(C)C [H-Ala-t-Leu-OH] (H-Ala-[Tle]-OH) | 0.4
44 | CC(C)(N)C(=O)N[C@@H](CCC(N)=O)C(=O)O [H-Aib-H-Gln-OH] (H-[Aib]-Gln-OH) | 18.8

Same assay, conditions: β-amino acid ester or β-amino acid; carboxy component 100 mM, amine component 150 mM, pH 9.0, 25° C., 3 hours

Row | Compound | Formed peptide [mM]
45 | NCC(=O)NC(CC(=O)O)c1ccccc1 (stereo not drawn) [Gly-β-Phe] | 0.4
46 | C[C@@H](O)[C@H](N)C(=O)NC(CC(=O)O)c1ccccc1 (stereo partly drawn) [Thr-β-Phe] | 1.4
47 | C[C@@H](O)[C@H](N)C(=O)NCCC(=O)O [Thr-β-Ala] | 3.2
48 | NCCC(=O)N[C@@H](CCC(N)=O)C(=O)O [β-Ala-L-Gln] | 0.6
49 | CC(N)C(=O)NC(CC(=O)O)c1ccccc1 (stereo not drawn) [Ala-β-Phe] | 1.4
50 | CC(N)C(=O)NCCC(=O)O (stereo not drawn) [Ala-β-Ala] | 7.7
51 | NCCC(=O)NCCC(=O)O [β-Ala-β-Ala] | 0.2
52 | NCC(=O)NCCC(=O)O [Gly-β-Ala] | 2.2
